Where two headings read alike, the source gives them in different places.
Experiments:
MCF-7 breast carcinoma = assay: Cytotoxicity assay (monolayer), MCF-7; format: cell-based; conditions: Homo sapiens, MCF7
Description: (§1) Statistical Assoc., 81, 991-999, 1986.
(§2) Monolayer assays with tumor cell lines (MCF-7 breast carcinoma and HT-29 colorectal carcinoma from ATCC) were carried out in triplicate in 96-well plates with RPMI1640 medium containing 5% fetal bovine serum, 100 U/ml penicillin and 100 μg/ml streptomycin. Normal human foreskin fibroblasts (HFF #CC-2509) were from Cambrex and were cultured in FGM-2 medium. Exponentially growing cells (5,000 MCF-7 or HT-29; 1,500 HFF) were plated in 100 μl medium and incubated overnight (5% CO2, 37° C.). Compounds (20 pM to 20 μM final concentration, 6-8 doses) and vehicle (DMSO) controls were added and the incubation was continued for an additional 72 hours. Final cell density was determined by incubating cultures with 25 μl AlamarBlue reagent (BioSource, Camarillo, Calif.) for 4 hours, followed by determination of fluorescence at excitation of 544 nm and emission of 590 nm with a SpectroMax Gemini EM fluorescence plate reader (Molecular Devices, Sunnyvale, Calif.). EC50 values were generated from dose-response curves by a 4-parameter method using Softmax PRO software. Mean EC50s (±SD) represent the average of all tests carried out for all lots of a given compound. […] Statistical Assoc., 81, 991-999 (1986).

[1] = tested on: Normal human foreskin fibroblasts (HFF); assay: Cytotoxicity assay (monolayer), HFF; format: cell-based; conditions: Fibroblast
Description: as §1, §2

[2] = biological target: T1, Human thymidine kinase 1 (TK1) (Homo sapiens, UniProt P04183); assay: Thymidine kinase coupled (kinetic) ATP depletion assay; format: biochemical; conditions: initial velocity relative to thymidine; 100 μM conjugate
T1 construct: His tag (from pET28b(+)) (N); made in house; host or cells: E. coli BL21-codon plus
T1 sequence (P04183 1-234): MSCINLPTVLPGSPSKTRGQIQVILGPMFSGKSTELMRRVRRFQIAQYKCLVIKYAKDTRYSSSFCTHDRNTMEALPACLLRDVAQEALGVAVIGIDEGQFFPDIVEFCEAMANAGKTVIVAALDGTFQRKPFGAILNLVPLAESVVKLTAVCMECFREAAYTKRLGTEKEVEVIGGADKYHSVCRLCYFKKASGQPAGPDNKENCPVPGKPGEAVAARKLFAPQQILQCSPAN

HUVEC = assay: Cytotoxicity assay (monolayer), HUVEC; format: cell-based; conditions: Homo sapiens, read-out: HUVEC (EC50 Ave) ML
MCF7 = assay: Cytotoxicity assay, MCF7 SSA (SSA not explained); format: cell-based; conditions: Homo sapiens

Ave. TK1 Kinase Act. [2]: A (A<20)
SMILES: CC(=O)O[C@H]1C(=O)[C@@]2(C)[C@H]([C@H](OC(=O)c3ccccc3)[C@]3(O)C[C@H](OC(=O)[C@H](O)[C@@H](NC(=O)c4ccccc4)c4ccccc4)C(C)=C1C3(C)C)[C@]1(OC(C)=O)CO[C@@H]1C[C@@H]2O [Paclitaxel]
EC50 (MCF-7 breast carcinoma; mean ± SD, read-out: MCF-7 Monolayer EC50): 5 ± 2 nM
EC50 (MCF-7 breast carcinoma; monolayer, 72 hours, AlamarBlue, read-out: MCF7 (EC50 Ave) ML): < 100 nM
EC50 ([1]; mean ± SD, read-out: HFF Monolayer EC50): 9 ± 5 nM
EC50 ([1]; monolayer, 72 hours, AlamarBlue, read-out: HFF (EC50 Ave) ML): < 100 nM
EC50 (HUVEC): < 100 nM
EC50 (MCF7): < 100 nM

— US20050148534A1, “Small molecule compositions and methods for increasing drug efficiency using compositions thereof” (priority 2003, published 2005)
